Laboratory results as given in paper PMC10761730, “Serglycin secreted by late-stage nucleus pulposus cells is a biomarker of intervertebral disc degeneration” (Nature Communications, 2024).

Molecular target: T1, Serglycin (SRGN) (Homo sapiens, UniProt P10124)
T1 construct: endogenous protein in primary human nucleus pulposus cells; CETSA with Western blot read-out
T1 sequence (P10124 28-158): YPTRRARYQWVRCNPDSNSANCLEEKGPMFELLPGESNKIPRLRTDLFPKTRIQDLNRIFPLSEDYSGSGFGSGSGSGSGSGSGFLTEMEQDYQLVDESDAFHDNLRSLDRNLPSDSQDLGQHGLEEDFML
Assay: cellular thermal shift assay (CETSA), Western blot
Assay type: cell-based
Conditions: intact NPCs pretreated with DAP for 12 h, heated 3 min, freeze-thaw lysis; melt curve only in figure

O=c1ccc2ccc(O)c(O)c2o1 [Daphnetin]
cellular thermal shift assay (CETSA), Western blot: CETSA) of DAP and SRGN proteins also suggested that DAP could bind to SRGN
